Data taken from ChEMBL document CHEMBL1135872, “Oxyaniliniums as acetylcholinesterase inhibitors for the reversal of neuromuscular block” (Bioorg Med Chem Lett, 2002).

Assays:
Cavia porcellus = organism: Cavia porcellus; experiment: In vitro potency in reversing vecuronium-induced block in guinea pig hemidiaphram; type: functional
Acetylcholinesterase = Acetylcholinesterase (Homo sapiens, UniProt P22303); experiment: In vitro inhibitory activity against human recombinant AChE
Felis catus [1] = organism: Felis catus; experiment: Effective dose required to reverse vecuronium-induced neuromuscular block in cat; type: functional
Felis catus [2] = experiment: Tested for effect on autonomic vagal membrane at dose of 1.28 umol/kg in cat; type: functional
Felis catus [3] = experiment: Tested for change in LV dp/dt at dose of 1.28 umol/kg in cat; type: functional
Felis catus [4] = experiment: Tested for change in heart rate at dose of 1.28 umol/kg in cat; type: functional
Felis catus [5] = experiment: Tested for change in arterial pressure at dose of 1.28 umol/kg in cat; type: functional, Artery
Felis catus [6] = experiment: Tested for change in LV pressure at dose of 1.28 umol/kg in cat; type: functional
Felis catus [7] = experiment: Tested for effect on nictitating membrane at dose of 1.28 umol/kg in cat; type: functional
Felis catus [8] = experiment: Tested for change in LV pressure at dose of 2.56 umol/kg in cat; type: functional
Felis catus [9] = experiment: Tested for effect on autonomic vagal membrane at dose of 2.56 umol/kg in cat; type: functional
Felis catus [10] = experiment: Tested for effect on nictitating membrane at dose of 2.56 umol/kg in cat; type: functional
Felis catus [11] = experiment: Tested for change in heart rate at dose of 2.56 umol/kg in cat; type: functional
Felis catus [12] = experiment: Tested for change in arterial pressure at dose of 2.56 umol/kg in cat; type: functional, Artery
Felis catus [13] = experiment: Tested for change in LV dp/dt at dose of 2.56 umol/kg in cat; type: functional
Felis catus [14] = experiment: Tested for change in LV pressure at dose of 2.1 umol/kg in cat; type: functional
Felis catus [15] = experiment: Tested for change in heart rate at dose of 2.1 umol/kg in cat; type: functional
Felis catus [16] = experiment: Tested for effect on nictitating membrane at dose of 2.1 umol/kg in cat; type: functional
Felis catus [17] = experiment: Tested for change in arterial pressure at dose of 2.1 umol/kg in cat; type: functional, Artery
Felis catus [18] = experiment: Tested for effect on autonomic vagal membrane at dose of 2.1 umol/kg in cat; type: functional
Felis catus [19] = experiment: Tested for change in LV dp/dt at dose of 2.1 umol/kg in cat; type: functional
Felis catus [20] = experiment: Tested for change in heart rate at dose of 1.026 umol/kg in cat; type: functional
Felis catus [21] = experiment: Tested for effect on autonomic vagal membrane at dose of 1.026 umol/kg in cat; type: functional
Felis catus [22] = experiment: Tested for change in arterial pressure at dose of 1.026 umol/kg in cat; type: functional, Artery
Felis catus [23] = experiment: Tested for change in LV pressure at dose of 1.026 umol/kg in cat; type: functional
Felis catus [24] = experiment: Tested for change in LV dp/dt at dose of 1.026 umol/kg in cat; type: functional
Felis catus [25] = experiment: Tested for effect on nictitating membrane at dose of 1.026 umol/kg in cat; type: functional
Felis catus [26] = experiment: Tested for change in arterial pressure at dose of 0.076 umol/kg in cat; type: functional, Artery
Felis catus [27] = experiment: Tested for change in LV dp/dt at dose of 0.076 umol/kg in cat; type: functional
Felis catus [28] = experiment: Tested for effect on autonomic vagal membrane at dose of 0.076 umol/kg in cat; type: functional
Felis catus [29] = experiment: Tested for change in heart rate at dose of 0.076 umol/kg in cat; type: functional
Felis catus [30] = experiment: Tested for effect on nictitating membrane at dose of 0.076 umol/kg in cat; type: functional
Felis catus [31] = experiment: Tested for change in LV pressure at dose of 0.076 umol/kg in cat; type: functional

Acetylcholinesterase, sequence (P22303 whole entry): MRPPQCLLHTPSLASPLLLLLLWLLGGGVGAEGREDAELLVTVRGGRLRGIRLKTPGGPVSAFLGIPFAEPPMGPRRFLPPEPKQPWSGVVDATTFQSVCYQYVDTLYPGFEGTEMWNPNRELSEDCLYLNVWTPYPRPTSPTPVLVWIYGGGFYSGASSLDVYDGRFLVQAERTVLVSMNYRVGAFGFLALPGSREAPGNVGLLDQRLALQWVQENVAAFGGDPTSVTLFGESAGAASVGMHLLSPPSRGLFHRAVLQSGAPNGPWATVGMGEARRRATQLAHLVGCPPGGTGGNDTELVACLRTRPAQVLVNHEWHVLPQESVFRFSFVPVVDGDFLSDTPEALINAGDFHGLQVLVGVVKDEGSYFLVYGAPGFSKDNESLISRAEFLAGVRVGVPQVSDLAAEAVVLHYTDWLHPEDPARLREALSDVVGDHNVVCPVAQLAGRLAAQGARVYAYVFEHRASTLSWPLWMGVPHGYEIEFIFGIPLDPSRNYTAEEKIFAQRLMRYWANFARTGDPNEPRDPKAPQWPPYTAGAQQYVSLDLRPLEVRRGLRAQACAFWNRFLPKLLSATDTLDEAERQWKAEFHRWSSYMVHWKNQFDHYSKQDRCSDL

SMILES | IC50 (Cavia porcellus) [µM] | IC50 (Acetylcholinesterase) [µM] | other results
C[N+](C)(Cc1ccccc1)c1ccccc1O | > 3 | > 10 | 
COc1cccc(C[N+](C)(C)Cc2ccccc2)c1 |  | > 10 | 
C=CC[N+](C)(C)c1cccc(OC)c1 | > 3 | > 10 | 
COc1cccc([N+](C)(C)Cc2ccccc2)c1 | > 3 | > 10 | 
C=C(C)C[N+](C)(C)c1ccccc1OC | > 3 | > 10 | 
COc1ccc(C(=O)CCc2cccc([N+](C)(C)C)c2)cc1OC |  | > 10 | 
C=C(C)C[N+](C)(C)c1ccc(O)cc1 | > 3 | > 10 | 
C=CC[N+](C)(C)Cc1cccc(O)c1 | > 3 | > 10 | 
C=C(C)C[N+](C)(C)c1ccccc1O | > 3 | > 10 | 
C[N+](C)(Cc1ccccc1)c1ccc(O)cc1 | > 3 | > 10 | 
CC(=O)Oc1ccccc1[N+](C)(C)Cc1ccccc1 | > 3 | > 10 | 
COc1ccc(C(=O)CCc2ccc([N+](C)(C)Cc3ccccc3)cc2)cc1OC | 4.11 | 1.3 | 
COc1cccc(C[N+](C)(C)C)c1 |  | > 10 | 
C=C(C)C[N+](C)(C)c1cccc(OC)c1 | > 3 | > 10 | 
COc1ccc([N+](C)(C)Cc2ccccc2)cc1 | > 3 | > 10 | 
C=CC[N+](C)(C)c1ccc(OC(C)=O)cc1 | > 3 | > 10 | 
C=CC[N+](C)(C)c1ccc(OC)cc1 | > 3 | > 10 | 
C[N+](C)(C)Cc1cccc(O)c1 | > 3 | > 10 | 
CC(=O)Oc1cccc([N+](C)(C)Cc2ccccc2)c1 | > 3 | > 10 | 
C=CC[N+](C)(C)c1ccccc1OC.[Br-] | 2.89 | 1 | ED50 (Felis catus [1]): 0.22 µmol/kg; Change (Felis catus [2]): 41%; Change (Felis catus [3]): 9%; Change (Felis catus [4]): 2%; Change (Felis catus [5]): 24%; Change (Felis catus [6]): 9%; Change (Felis catus [7]): 2%

SMILES | IC50 (Cavia porcellus) [µM] | IC50 (Acetylcholinesterase) [µM] | other results
C=CC[N+](C)(C)c1ccc(O)cc1 | > 3 | > 10 | 
C=CC[N+](C)(C)c1ccc(OCC(=O)c2ccc(OC)c(OC)c2)cc1 | 0.5 | 10 | 
COc1ccc(C(=O)CCc2cccc([N+](C)(C)Cc3ccccc3)c2)cc1OC | > 3 | 1.04 | 
C=CC[N+](C)(C)c1cccc(OC(C)=O)c1 | 3.87 | 1 | 
C=CC[N+](C)(C)Cc1cccc(OC)c1 | > 3 | > 10 | 
COc1ccc(C(=O)CCc2ccc([N+](C)(C)C)cc2)cc1OC | 2 | 3 | 
COc1ccc(C(=O)COc2cccc([N+](C)(C)Cc3ccccc3)c2)cc1OC.[Br-] | 1.69 | 0.33 | Change (Felis catus [8]): 63%; Change (Felis catus [9]): 5%; Change (Felis catus [10]): 34%; Change (Felis catus [11]): 8%; Change (Felis catus [12]): 56%; Change (Felis catus [13]): 82%
COc1ccc(C(=O)COc2ccc([N+](C)(C)C)cc2)cc1OC | 9.8 | 10 | 
C=CC[N+](C)(C)c1ccccc1O.[Br-] | 74 | 1.85 | ED50 (Felis catus [1]): 0.5 µmol/kg; Change (Felis catus [14]): 12%; Change (Felis catus [15]): 1%; Change (Felis catus [16]): 5%; Change (Felis catus [17]): 2%; Change (Felis catus [18]): 5%; Change (Felis catus [19]): 8%
C[N+](C)(Cc1ccccc1)c1cccc(O)c1 | > 3 | > 10 | 
C=C(C)C[N+](C)(C)c1cccc(O)c1 | > 3 | > 10 | 
C[N+](C)(Cc1ccccc1)Cc1cccc(O)c1 |  | > 10 | 
C=CC[N+](C)(C)c1cccc(O)c1 | 13 | 3 | 
C=CCC[N+](C)(C)c1ccccc1O | > 10 | 10 | 
COc1ccccc1[N+](C)(C)Cc1ccccc1 | > 3 | > 10 | 
COc1ccc(C(=O)COc2ccc([N+](C)(C)Cc3ccccc3)cc2)cc1OC | 19.4 | 10 | 
COc1ccc(C(=O)COc2cccc([N+](C)(C)C)c2)cc1OC | 7.08 | 10 | 
CC(=O)Oc1ccc([N+](C)(C)Cc2ccccc2)cc1 | > 3 | > 10 | 
CC[N+](C)(C)c1cccc(O)c1.[Br-] [EDROPHONIUM BROMIDE] | 2.77 |  | Change (Felis catus [20]): 2%; Change (Felis catus [21]): -67%; Change (Felis catus [22]): 22%; Change (Felis catus [23]): 23%; Change (Felis catus [24]): 20%; Change (Felis catus [25]): 7%
CN(C)C(=O)Oc1cccc([N+](C)(C)C)c1.[Br-] [NEOSTIGMINE BROMIDE] | 0.028 |  | Change (Felis catus [26]): 22%; Change (Felis catus [27]): 12%; Change (Felis catus [28]): 62%; Change (Felis catus [29]): 4%; Change (Felis catus [30]): 6%; Change (Felis catus [31]): -14%
